Test results: ChEMBL document CHEMBL1201862, “PubChem BioAssay data set” (2004)
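Test compounds were applied to cells in 96-well plates for 48 hours at 5 doses. GI50 is the concentration that inhibits growth by half.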 The source made the active and inactive calls. Rule as the data show it: active = GI50 up to about 1.1 µM and inactive = higher.

Assays:
Experiment in all cases: DTP human tumour cell line panel, 48 h
[1] = system: NCI-H23
[2] = system: KM12
[3] = system: Malme-3M
[4] = system: CCRF-CEM
[5] = system: HL-60
[6] = system: SF-539
[7] = system: HCT-116
[8] = system: SK-OV-3
[9] = system: HT-29
[10] = system: UO-31
[11] = system: MDA-MB-435
[12] = system: PC-3
[13] = system: MDA-N
[14] = system: BT-549
[15] = system: OVCAR-3
[16] = system: SR
[17] = system: NCI/ADR-RES
[18] = system: SNB-75
[19] = system: T47D
[20] = system: HCT-15

Structure (SMILES) | GI50 [1] | GI50 [2] | GI50 [3] | GI50 [4] | GI50 [5] | GI50 [6] | GI50 [7] | GI50 [8] | GI50 [9] | GI50 [10] | GI50 [11] | GI50 [12] | GI50 [13] | GI50 [14] | GI50 [15] | GI50 [16] | GI50 [17] | GI50 [18] | GI50 [19] | GI50 [20]
CCOC(=O)c1cc(C2CCN(CC(C)CC)C2=S)c(-c2cc(C)no2)[nH]1 (centres undefined) | > 100 µM (inactive) | 49.2 µM (inactive) | > 100 µM (inactive) | > 100 µM (inactive) | 35 µM (inactive) | > 100 µM (inactive) | 88.9 µM (inactive) | > 100 µM (inactive) | 41.7 µM (inactive) | 17.3 µM (inactive) | > 100 µM (inactive) | 41.6 µM (inactive) | > 100 µM (inactive) | 83.9 µM (inactive) | > 100 µM (inactive) | 56.5 µM (inactive) | 41.3 µM (inactive) | 57.9 µM (inactive) | 50.4 µM (inactive) | > 100 µM
C=C=C(CC1CCCCC1=O)S(=O)(=O)c1ccccc1 (centres undefined) | 5.13 µM (inactive) | – | > 10 µM (inactive) | 2.16 µM (inactive) | 1.52 µM (inactive) | > 10 µM (inactive) | 2.65 µM (inactive) | > 10 µM (inactive) | > 10 µM (inactive) | > 10 µM (inactive) | > 7.23 µM (inactive) | > 10 µM (inactive) | > 7.13 µM (inactive) | > 10 µM (inactive) | > 10 µM (inactive) | 2.41 µM (inactive) | > 10 µM (inactive) | > 6.04 µM (inactive) | > 10 µM (inactive) | 4.52 µM
O=[N+]([O-])c1ccc(N/N=C2\C=CCCC2)c([N+](=O)[O-])c1 | > 100 µM (inactive) | > 100 µM (inactive) | > 100 µM (inactive) | > 100 µM (inactive) | > 100 µM (inactive) | – | > 100 µM (inactive) | > 100 µM (inactive) | > 100 µM (inactive) | 39 µM (inactive) | > 100 µM (inactive) | > 100 µM (inactive) | > 100 µM (inactive) | > 100 µM (inactive) | > 100 µM (inactive) | > 100 µM (inactive) | > 100 µM (inactive) | 27.2 µM (inactive) | > 100 µM (inactive) | > 100 µM
Cn1c(-c2cccs2)cc(-c2ccsc2)c1-c1ccsc1 | 8.24 µM (inactive) | > 100 µM (inactive) | > 100 µM (inactive) | > 100 µM (inactive) | – | > 100 µM (inactive) | 64.1 µM (inactive) | > 100 µM (inactive) | 93.5 µM (inactive) | > 100 µM (inactive) | > 100 µM (inactive) | > 100 µM (inactive) | > 100 µM (inactive) | > 100 µM (inactive) | > 100 µM (inactive) | > 100 µM (inactive) | > 100 µM (inactive) | > 100 µM (inactive) | 1.81 µM (inactive) | > 100 µM
Cn1cco/c1=N/c1ccc(Cl)c(Cl)c1 | > 10 µM (inactive) | > 10 µM (inactive) | > 10 µM (inactive) | > 10 µM (inactive) | – | > 10 µM (inactive) | > 10 µM (inactive) | > 10 µM (inactive) | > 10 µM (inactive) | > 10 µM (inactive) | > 10 µM (inactive) | > 10 µM (inactive) | > 10 µM (inactive) | > 10 µM (inactive) | > 10 µM (inactive) | > 10 µM (inactive) | > 10 µM (inactive) | > 10 µM (inactive) | > 10 µM (inactive) | > 10 µM
Cc1cc(N)ccc1/N=N\c1ccc(S(=O)(=O)CCOS(=O)(=O)O)cc1 | 0.7 µM (active) | 2.87 µM (inactive) | 1.99 µM (inactive) | 0.382 µM (active) | 0.948 µM (active) | 2.46 µM (inactive) | 0.34 µM (active) | – | 0.767 µM (active) | 2 µM (inactive) | 0.216 µM (active) | 0.292 µM (active) | 0.282 µM (active) | 1.53 µM (inactive) | 3.45 µM (inactive) | 0.488 µM (active) | 0.41 µM (active) | 1.04 µM (active) | 12.2 µM (inactive) | 0.346 µM
COC(=O)/C=C(\C(=O)OC)c1cc(C)c2cc(C(C)C)ccc(C)c1-2 | 31.8 µM (inactive) | 37.4 µM (inactive) | 38.5 µM (inactive) | 71.4 µM (inactive) | 34.7 µM (inactive) | 30.5 µM (inactive) | 34 µM (inactive) | 85.9 µM (inactive) | 13.3 µM (inactive) | 20.5 µM (inactive) | 30 µM (inactive) | 29 µM (inactive) | 19.5 µM (inactive) | 39.6 µM (inactive) | 49.4 µM (inactive) | > 100 µM (inactive) | 32 µM (inactive) | – | 15.4 µM (inactive) | 11.7 µM
